Test results as given in patent publication US11753407B2, “Compounds for treating spinal muscular atrophy” (PTC Therapeutics, Inc., priority 2012, dated 2023).

Experiments:
[1] = system: SMN2 minigene mRNA (SMN2-A minigene) in HEK293H cells; assay: SMN2 minigene mRNA splicing RT-qPCR assay in cultured cells; type: cell-based, human; details: Homo sapiens, HEK293-H; concentration increasing full length SMN2 mRNA 1.5-fold relative to vehicle-treated cells; HEK293H cells with SMN2-A minigene, 24 hours, 7-point concentration data; read-out: EC1.5x for production of full length SMN2 mRNA
Summary of the method: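 Read-out: minigene-specific full-length (exon 7-included) SMN2 mRNA by one-step multiplex RT-qPCR, normalized to GAPDH and divided by vehicle-treated level. Stable SMN2-A minigene HEK293H cells, 24 h compound exposure, 7 concentrations in duplicate. EC1.5× = concentration raising FL mRNA 1.5-fold.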

[2] = system: Smn protein in SMA patient fibroblast cells (GM03813); assay: Smn protein assay in cultured cells (SMN HTRF); type: cell-based, human; details: SMA patient fibroblast cells, 48 hours; for EC1.5x for Smn protein expression: 7-point concentration curve, SMN HTRF, concentration producing 1.5 times Smn protein vs DMSO vehicle control; for maximum fold (Fold) increase of Smn protein: 7-point concentration data, fold relative to vehicle control
Summary of the method: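 Read-out: HTRF 665/620 nm ratio, blank-subtracted as ΔF, then expressed as fold over DMSO vehicle. Fibroblasts from SMA patients were exposed to compounds for 48 h (7 points, 3.16-fold steps, triplicates). Values are EC1.5× and maximum fold Smn increase.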

| Structure (SMILES) | EC (1.5-fold increase) [1] [µM] | EC1.5x for Smn protein expression [2] | maximum fold (Fold) increase of Smn protein [2] | melting point [°C] |
| --- | --- | --- | --- | --- |
| Cc1cc(C2CCN(CCO)CC2)cn2c(=O)cc(-c3ccc4nn(C)cc4c3)nc12 [Compound 711, 7-[1-(2-hydroxyethyl)piperidin-4-yl]-9-methyl-2-(2-methyl-2H-indazol-5-yl)-4H-pyrido[1,2-a]pyrimidin-4-one] | < 0.1 | **** (an EC1.5x≤0.3 μM is indicated by four stars (****)) | ***** (a fold increase >1.65 is indicated by five stars (*****)) | 216 to 222 |
| CCCN1CCC(c2cc(C)c3nc(-c4cc5c(C)nc(C)cn5n4)cc(=O)n3c2)CC1 [Compound 712, 2-(4,6-dimethylpyrazolo[1,5-a]pyrazin-2-yl)-9-methyl-7-(1-propylpiperidin-4-yl)-4H-pyrido[1,2-a]pyrimidin-4-one] | < 0.1 | **** (an EC1.5x≤0.3 μM is indicated by four stars (****)) | ***** (a fold increase >1.65 is indicated by five stars (*****)) | 216 to 223 |
| Cc1cn2cc(-c3cc(=O)n4cc(N5CCN[C@H](C)C5)ccc4n3)cc(C3CC3)c2n1 [Compound 715, 2-(8-cyclopropyl-2-methylimidazo[1,2-a]pyridin-6-yl)-7-[(3R)-3-methylpiperazin-1-yl]-4H-pyrido[1,2-a]pyrimidin-4-one] | < 0.1 | **** (an EC1.5x≤0.3 μM is indicated by four stars (****)) | ***** (a fold increase >1.65 is indicated by five stars (*****)) | 246 to 250 |
| Cc1cn2cc(-c3cc(=O)n4cc(N5CCN[C@@H](C)C5)ccc4n3)cc(C3CC3)c2n1 [Compound 716, 2-(8-cyclopropyl-2-methylimidazo[1,2-a]pyridin-6-yl)-7-[(3S)-3-methylpiperazin-1-yl]-4H-pyrido[1,2-a]pyrimidin-4-one] | < 0.1 | *** (an EC1.5× between >0.3 μM and ≤1 μM is indicated by three stars (***)) | ***** (a fold increase >1.65 is indicated by five stars (*****)) | 246 to 250 |
| Cc1cn2cc(-c3cc(=O)n4cc(N5C[C@@H](C)N[C@@H](C)C5)ccc4n3)cc(C3CC3)c2n1 [Compound 717, 2-(8-cyclopropyl-2-methylimidazo[1,2-a]pyridin-6-yl)-7-[(3R,5S)-3,5-dimethylpiperazin-1-yl]-4H-pyrido[1,2-a]pyrimidin-4-one] | 0.1 to 0.3 | *** (an EC1.5× between >0.3 μM and ≤1 μM is indicated by three stars (***)) | ***** (a fold increase >1.65 is indicated by five stars (*****)) | 205 to 209 |
| Cc1cc(C2CCN(C3CC3)CC2)cn2c(=O)cc(-c3ccc4nn(C)cc4c3)nc12 [Compound 718, 7-(1-cyclopropylpiperidin-4-yl)-9-methyl-2-(2-methyl-2H-indazol-5-yl)-4H-pyrido[1,2-a]pyrimidin-4-one] | < 0.1 | *** (an EC1.5× between >0.3 μM and ≤1 μM is indicated by three stars (***)) | **** (a fold increase between >1.5 and ≤1.65 is indicated by four stars (****)) | 226 to 231 |
| CCN1CCC(c2cc(C)c3nc(-c4ccc5nn(C)cc5c4)cc(=O)n3c2)CC1 [Compound 719, 7-(1-ethylpiperidin-4-yl)-9-methyl-2-(2-methyl-2H-indazol-5-yl)-4H-pyrido[1,2-a]pyrimidin-4-one] | < 0.1 | **** (an EC1.5x≤0.3 μM is indicated by four stars (****)) | **** (a fold increase between >1.5 and ≤1.65 is indicated by four stars (****)) | 237 to 241 |
| Cc1cn2nc(-c3cc(=O)n4cc(N5CCNCC5)cc(C)c4n3)cc2c(C)n1 [Compound 720, 2-(4,6-dimethylpyrazolo[1,5-a]pyrazin-2-yl)-9-methyl-7-(piperazin-1-yl)-4H-pyrido[1,2-a]pyrimidin-4-one] | < 0.1 | **** (an EC1.5x≤0.3 μM is indicated by four stars (****)) | ***** (a fold increase >1.65 is indicated by five stars (*****)) | 254 to 264 |
| Cc1cc(C2CCNCC2)cn2c(=O)cc(-c3ccc4nn(C)cc4c3)nc12 [Compound 721, 9-methyl-2-(2-methyl-2H-indazol-5-yl)-7-(piperidin-4-yl)-4H-pyrido[1,2-a]pyrimidin-4-one] | < 0.1 | **** (an EC1.5x≤0.3 μM is indicated by four stars (****)) | ***** (a fold increase >1.65 is indicated by five stars (*****)) | 211 |
| Cc1cn2nc(-c3cc(=O)n4cc(OC5CCN(C)CC5)ccc4n3)cc2c(C)n1 [Compound 722, 2-(4,6-dimethylpyrazolo[1,5-a]pyrazin-2-yl)-7-[(1-methylpiperidin-4-yl)oxy]-4H-pyrido[1,2-a]pyrimidin-4-one] | < 0.1 | **** (an EC1.5x≤0.3 μM is indicated by four stars (****)) | ***** (a fold increase >1.65 is indicated by five stars (*****)) | 249 to 252 |
| CCCc1nc(C)cn2nc(-c3cc(=O)n4cc(N5CCNCC5)ccc4n3)cc12 [Compound 723, 2-(6-methyl-4-propylpyrazolo[1,5-a]pyrazin-2-yl)-7-(piperazin-1-yl)-4H-pyrido[1,2-a]pyrimidin-4-one] | < 0.1 | **** (an EC1.5x≤0.3 μM is indicated by four stars (****)) | ***** (a fold increase >1.65 is indicated by five stars (*****)) | 250 to 252 |
| CCCc1nc(C)cn2nc(-c3cc(=O)n4cc(N5CCN(C)CC5)ccc4n3)cc12 [Compound 724, 7-(4-methylpiperazin-1-yl)-2-(6-methyl-4-propylpyrazolo[1,5-a]pyrazin-2-yl)-4H-pyrido[1,2-a]pyrimidin-4-one] | 0.3 to 1 | *** (an EC1.5× between >0.3 μM and ≤1 μM is indicated by three stars (***)) | ***** (a fold increase >1.65 is indicated by five stars (*****)) | 246 to 248 |
| CCCc1nc(C)cn2nc(-c3cc(=O)n4cc(N5CCN(CC)CC5)ccc4n3)cc12 [Compound 725, 7-(4-ethylpiperazin-1-yl)-2-(6-methyl-4-propylpyrazolo[1,5-a]pyrazin-2-yl)-4H-pyrido[1,2-a]pyrimidin-4-one] | 0.1 to 0.3 | *** (an EC1.5× between >0.3 μM and ≤1 μM is indicated by three stars (***)) | ***** (a fold increase >1.65 is indicated by five stars (*****)) | 231 to 233 |
| CCCc1nc(C)cn2nc(-c3cc(=O)n4cc(N5CCN(CCO)CC5)ccc4n3)cc12 [Compound 726, 7-[4-(2-hydroxyethyl)piperazin-1-yl]-2-(6-methyl-4-propylpyrazolo[1,5-a]pyrazin-2-yl)-4H-pyrido[1,2-a]pyrimidin-4-one] | 0.3 to 1 | ** (an EC1.5× between >1 μM and ≤3 μM is indicated by two stars (**)) | **** (a fold increase between >1.5 and ≤1.65 is indicated by four stars (****)) | 225 to 227 |
